According to publication PMC4872591, “An evaluation of Minor Groove Binders as anti-Trypanosoma brucei brucei therapeutics” (European Journal of Medicinal Chemistry, 2016):
Like-named read-outs stand apart in the source and are kept apart here. Marks after values point to notes of the source that are not given here.

Legend:
[1] = test system: Bloodstream form T. b. brucei (Lister 427); assay: Trypanosoma brucei brucei Alamar Blue assay; type: cell-based; details: Trypanosoma brucei
Procedure: IC50 values against trypanosomes were determined by Alamar Blue assay. […] After this time, 20 μL of resazurin dye (Sigma–Aldrich) solution at 0.49 mM was added. […] Output was plotted using the IC50 determination algorithm of Prism 5.0 software (GraphPad). Three independent experiments were carried out in duplicate for each compound.

[2] = test system: HEK 293 cells; assay: HEK 293 cytotoxicity assay (AlamarBlue viability); type: cell-based, human; details: for SI (selectivity index): HEK 293 IC50 taken as 20 μM (10 μM estimated for compound 21) versus T. b. brucei IC50
Procedure: Compounds were tested in an AlamarBlue viability assay using fluorescent intensity as the output. Briefly, Human Embryonic Kidney cells (HEK 293) were cultured in DMEM (Dulbeccos Modified Eagle Medium) plus 10% Foetal Bovine Serum (FBS) in a humidified environment at 37 °C and 5% CO2. Cells were harvested at 80% confluence and plated into 384-well tissue culture treated black walled clear base plates at 2000 cells per well in a volume of 45 μl and incubated overnight to equilibrate. Five μl of compounds in serial dilution format, including Puromycin as a positive control and 0.4% DMSO as the negative control, were transferred into the plates containing the equilibrated HEK293 cells. The plates were incubated for a further 72 h before “flicking” the compound containing media out and replacing with 40 μL of 10% AlamarBlue® in DMEM without FBS. The assay plates were returned to the incubator for 6 h then the total fluorescent intensity determined at 535 nm excitation and 585 nm emission using the Perkin Elmer ENVISION 2101 Multilabel Reader. Fluorescent intensity values were normalized as percent inhibition in relation to the positive and negative controls of 5 μM Puromycin and 0.4% DMSO, respectively. The compounds were tested in two separate experiments each in duplicate point.

[3] = test system: kinetoplast of trypanosome; parameters: method as in PMID 16723581; details: cited from earlier work
[4] = test system: T. b. brucei; assay: Fluorescence microscopy, intracellular localisation in T. b. brucei; type: cell-based, Trypanosoma brucei brucei; details: 50 μM, 2 h, FITC and DsRed filters
Procedure: Fig. 6 Intracellular localisation of fluorescent MGB in T. b. brucei. Trypanosomes were treated for 2 h with 50 μM of MGB and viewed at 100 × magnification. N = nucleus; K = kinetoplast; arrow = other organelles. Bar = 10 μm.
T. b. brucei parasites (1 × 10^7 cell/mL) were treated with 50 μM of compound 32 for 2 h at 37 °C in a humidified, 5% CO2 atmosphere. After washing in PBS, an aliquot of cells was mixed with an equal volume of 2% w/v low melting point agarose (Sigma–Aldrich) and spread onto a slide by addition of a coverslip. Slides were viewed using a Zeiss Axioplan 2 Imaging epifluorescence microscope, equipped with a digital CCD camera (Hammatsu Photonics) and a Plan[…] 100 × oil-immersion NA 1.4 objective (Carl Zeiss). FITC (excitation 450–490 nm, beamsplitter 510 nm, emission 515–565 nm) and DsRed (excitation 545/25 nm, beamsplitter 570 nm, emission 605/70 nm) filter sets were used, and images acquired using Volocity imaging software (Improvision).

[5] = Table 1, Alamar Blue, 48 h + 24 h, all standard deviations less than 2%, read-out: IC50 against Trypanosoma brucei brucei
[6] = Table 2, read-out: Trypanosoma brucei brucei IC50
[7] = values given in nM, read-out: IC50 against T. b. brucei
[8] = Table S2 (supplement), T. b. brucei activity, read-out: IC50

Row | Structure (SMILES) | IC50 [1, 5] | IC50 [1, 6] | IC50 [1, 7] | SI (selectivity index) [2] | other results
1 | N=C(N)c1ccc(-c2ccc(-c3ccc(C(=N)N)cc3)o2)cc1 [Furamidine, furamidine] | – | – | – | – | exposure time to destruction of the kinetoplast [3]: ≤ 24 h
2 | Cn1cc(NC(=O)c2cc(NC(=O)c3ccc(/C=C/c4cccc(F)c4)cc3)cn2C)cc1C(=O)NCCN1CCOCC1 [Compound 27, 4-({4-[(E)-2-(3-fluorophenyl)ethenyl]benzoyl}amino)-1-methyl-N-[1-methyl-5-({[2-(4-morpholinyl)ethyl]amino}carbonyl)-1H-pyrrol-3-yl]-1H-pyrrole-2-carboxamide] | 220 nM | – | – | – | –
3 | N=C(N)c1ccc(OCCCCCOc2ccc(C(=N)N)cc2)cc1 [pentamidine] | – | – | – | – | exposure time to destruction of the kinetoplast [3]: ≤ 24 h
4 | COc1cccc(/C=C/c2ccc(C(=O)Nc3cc(C(=O)Nc4nc(C(=O)NCCCN(C)C)c(CCC(C)C)s4)n(C)c3)cc2)c1 [Compound 11, N-[3-(dimethylamino)propyl]-5-isopentyl-2-({[4-({4-[(E)-2-(3-methoxyphenyl)ethenyl]benzoyl}amino)-1-methyl-1H-pyrrol-2-yl]carbonyl}amino)-1,3-thiazole-4-carboxamide] | 280 nM | – | – | – | IC50 [1, 8]: 300 nM
5 | CC(C)CCc1sc(NC(=O)c2cc(NC(=O)c3ccc(/C=C/c4ccc5ccccc5n4)cc3)cn2C)nc1C(=O)NCCN1CCOCC1 [Compound 23, 5-isopentyl-2-({[1-methyl-4-({4-[(E)-2-(2-quinolinyl)ethenyl]benzoyl}amino)-1H-pyrrol-2-yl]carbonyl}amino)-N-[2-(4-morpholinyl)ethyl]-1,3-thiazole-4-carboxamide] | 620 nM | – | – | – | –
6 | CC(C)CCc1sc(NC(=O)c2cc(NC(=O)c3cc4ccccc4cn3)cn2C)nc1C(=O)NCCCN(C)C [Compound 18, N-[5-({[4-({[3-(Dimethylamino)propyl]amino}carbonyl)-5-isopentyl-1,3-thiazol-2-yl]amino}carbonyl)-1-methyl-1H-pyrrol-3-yl]-3-isoquinolinecarboxamide] | 390 nM | – | – | – | –
7 | COc1ccc(C[C@H](N)C(=O)N[C@H]2[C@@H](O)[C@H](n3cnc4c(N(C)C)ncnc43)O[C@@H]2CO)cc1 [Puromycin, reference compound] | – | – | – | – | IC50 ([2]; Homo sapiens, HEK293, positive control, two separate independent experiments, read-out: IC50 against HEK 293 cells): 350 nM
8 | CC(=N)Nc1cc(C(=O)Nc2cc(C(=O)Nc3cc(C(=O)NCCCN(C)C)n(C)c3)n(C)c2)n(C)c1 [Compound 2, N-[5-({[5-({[3-(Dimethylamino)propyl]amino}carbonyl)-1-methyl-1H-pyrrol-3-yl]amino}carbonyl)-1-methyl-1H-pyrrol-3-yl]-4-(ethanimidoylamino)-1-methyl-1H-pyrrole-2-carboxamide] | > 75000 nM | – | – | – | IC50 ([1]; values in μM, read-out: IC50 against T. b. brucei): > 75000 nM
9 | Cn1cc(NC(=O)c2cc(NC(=O)c3cc(NC(=O)c4ccc(Cl)cc4Cl)cn3C)cn2C)cc1C(=O)NCCN1CCOCC1 [Compound 3, 4-[(2,4-Dichlorobenzoyl)amino]-1-methyl-N-[1-methyl-5-({[1-methyl-5-({[2-(4-morpholinyl)ethyl]amino}carbonyl)-1H-pyrrol-3-yl]amino}carbonyl)-1H-pyrrol-3-yl]-1H-pyrrole-2-carboxamide] | 400 nM | – | – | – | –

More lines, main results first:

Row | IC50 [1, 5] | IC50 [1, 6] | IC50 [1, 7] | Structure (SMILES) | SI (selectivity index) [2] | other results
10 | 7.3 nM | 7.3 nM | < 40 nM | Cn1cc(NC(=O)c2cc(NC(=O)c3ccc(/C=C/c4ccc5nsnc5c4)cc3)cn2C)cc1C(=O)NCCN1CCOCC1 [Compound 28, 4-({4-[(E)-2-(2,1,3-benzothiadiazol-5-yl)ethenyl]benzoyl}amino)-1-methyl-N-[1-methyl-5-({[2-(4-morpholinyl)ethyl]amino}carbonyl)-1H-pyrrol-3-yl]-1H-pyrrole-2-carboxamide] | >2739 | % HEK 293 Inhibition at 20 μM ([2]; 20 μM, 72 h, HEK 293): N/A (N/A is an IC50 value > 20 μM)
11 | 6.8 nM | 6.8 nM | < 40 nM | Cn1cc(NC(=O)c2cc(NC(=O)c3cc(NC(=O)c4cc5ccccc5cn4)cn3C)cn2C)cc1C(=O)NCCCN1CCOCC1 [Compound 8, N-[1-Methyl-5-({[1-methyl-5-({[1-methyl-5-({[3-(4-morpholinyl)propyl]amino}carbonyl)-1H-pyrrol-3-yl]amino}carbonyl)-1H-pyrrol-3-yl]amino}carbonyl)-1H-pyrrol-3-yl]-3-isoquinolinecarboxamide] | >2941 | % HEK 293 Inhibition at 20 μM ([2]; 20 μM, 72 h, HEK 293): N/A (N/A is an IC50 value > 20 μM)
12 | 170 nM | – | – | CN(C)c1ccc(/C=C/c2ccc(C(=O)Nc3cc(C(=O)Nc4cc(C(=O)NCCN5CCOCC5)n(C)c4)n(C)c3)cn2)cc1 [Compound 32, 6-{(E)-2-[4-(Dimethylamino)phenyl]ethenyl}-N-[1-methyl-5-({[1-methyl-5-({[2-(4-morpholinyl)ethyl]amino}carbonyl)-1H-pyrrol-3-yl]amino}carbonyl)-1H-pyrrol-3-yl]nicotinamide] | – | Intracellular localisation in the trypanosome [4]: localisation to the nucleic acid rich regions of the nucleus and kinetoplast
13 | 40 nM | 40 nM | < 40 nM | CC(C)CCc1sc(NC(=O)c2cc(NC(=O)c3ccc(/C=C/c4ccc5ccccc5c4)cc3)cn2C)nc1C(=O)NCCN1CCOCC1 [Compound 20, 5-isopentyl-2-({[1-methyl-4-({4-[(E)-2-(2-naphthyl)ethenyl]benzoyl}amino)-1H-pyrrol-2-yl]carbonyl}amino)-N-[2-(4-morpholinyl)ethyl]-1,3-thiazole-4-carboxamide] | >500 | % HEK 293 Inhibition at 20 μM ([2]; 20 μM, 72 h, HEK 293): N/A (N/A is an IC50 value > 20 μM)
14 | 210 nM | – | – | CC(C)CCc1sc(NC(=O)c2cc(NC(=O)c3cc(/C=C/c4ccc([N+](=O)[O-])cc4)cn3C)cn2C)nc1C(=O)NCCCN(C)C [Compound 13, N-[3-(dimethylamino)propyl]-5-isopentyl-2-[({1-methyl-4-[({1-methyl-4-[(E)-2-(4-nitrophenyl)ethenyl]-1H-pyrrol-2-yl}carbonyl)amino]-1H-pyrrol-2-yl}carbonyl)amino]-1,3-thiazole-4-carboxamide] | – | IC50 [1, 8]: 180 nM
15 | 5.4 nM | 5.4 nM | < 40 nM | CC(C)CCc1sc(NC(=O)c2cc(NC(=O)c3cc(/C=C/c4ccc([N+](=O)[O-])cc4)cn3C)cn2C)nc1C(=O)NCCN1CCOCC1 [Compound 21, 5-isopentyl-2-[({1-methyl-4-[({1-methyl-4-[(E)-2-(4-nitrophenyl)ethenyl]-1H-pyrrol-2-yl}carbonyl)amino]-1H-pyrrol-2-yl}carbonyl)amino]-N-[2-(4-morpholinyl)ethyl]-1,3-thiazole-4-carboxamide] | >1851* | inhibition at 20 µM ([2]; Homo sapiens, HEK293, 20 μM, 72 h, HEK 293): 54%; IC50 ([2]; Homo sapiens, HEK293, read-out: estimated IC50 against HEK 293 cells): ~10000 nM
16 | 19 nM | 19 nM | < 40 nM | Cn1cc(NC(=O)c2cc(NC(=O)c3ccc(/C=C/c4ccc5nonc5c4)cc3)cn2C)cc1C(=O)NCCN1CCOCC1 [Compound 29, 4-({4-[(E)-2-(2,1,3-benzoxadiazol-5-yl)ethenyl]benzoyl}amino)-1-methyl-N-[1-methyl-5-({[2-(4-morpholinyl)ethyl]amino}carbonyl)-1H-pyrrol-3-yl]-1H-pyrrole-2-carboxamide] | >1052 | % HEK 293 Inhibition at 20 μM ([2]; 20 μM, 72 h, HEK 293): N/A (N/A is an IC50 value > 20 μM)
